What was measured:
[1] = system: NetB toxin; assay type: cell-based, Clostridium perfringens strain 25037-CP01
[2] = system: netB gene; assay type: cell-based, Clostridium perfringens
[3] = system: HT-29 cells; assay type: cell-based, human

| Molecule | level of extracellular NetB toxin secreted into the media [1] | netB expression / toxin producing population in single cell data [2] | HT29 cell death [3] |
| --- | --- | --- | --- |
| ammonium phosphate | reduced |  |  |
| N[C@@H](CC(=O)O)C(=O)O [aspartic acid] | lower the level | marked reduction | less than 10% |
| Cc1ncc(C[n+]2csc(CCO)c2C)c(N)n1 [Vitamin B1] | reduced |  |  |
| N=C(N)NCCC[C@H](N)C(=O)O [arginine] |  | small reduction |  |
| Cc1ncc(CO)c(CO)c1O.Cl [Vitamin B6] | reduced |  |  |
| CC(=O)[O-].[Na+] [sodium acetate] | reduced |  |  |
| NCCC[C@H](N)C(=O)O [ornithine] |  | small reduction |  |
| Vitamin B12 | reduced |  |  |
